What was measured:
[1] = Inhibition of human recombinant glutaminase assessed as reduction in glutamate production in presence of NADPH-dependent glutamate dehydrogenase preincubated 60 mins by coupled biochemical assay
[2] = target: T1, Glutaminase kidney isoform, mitochondrial (Homo sapiens, UniProt O94925); assay: Allosteric inhibition of human kidney glutaminase using [3H]-Glutamine as substrate in presence of inhibitor incubated for 45 mins by Perkin Elmer based assay
T1 sequence (O94925 whole entry): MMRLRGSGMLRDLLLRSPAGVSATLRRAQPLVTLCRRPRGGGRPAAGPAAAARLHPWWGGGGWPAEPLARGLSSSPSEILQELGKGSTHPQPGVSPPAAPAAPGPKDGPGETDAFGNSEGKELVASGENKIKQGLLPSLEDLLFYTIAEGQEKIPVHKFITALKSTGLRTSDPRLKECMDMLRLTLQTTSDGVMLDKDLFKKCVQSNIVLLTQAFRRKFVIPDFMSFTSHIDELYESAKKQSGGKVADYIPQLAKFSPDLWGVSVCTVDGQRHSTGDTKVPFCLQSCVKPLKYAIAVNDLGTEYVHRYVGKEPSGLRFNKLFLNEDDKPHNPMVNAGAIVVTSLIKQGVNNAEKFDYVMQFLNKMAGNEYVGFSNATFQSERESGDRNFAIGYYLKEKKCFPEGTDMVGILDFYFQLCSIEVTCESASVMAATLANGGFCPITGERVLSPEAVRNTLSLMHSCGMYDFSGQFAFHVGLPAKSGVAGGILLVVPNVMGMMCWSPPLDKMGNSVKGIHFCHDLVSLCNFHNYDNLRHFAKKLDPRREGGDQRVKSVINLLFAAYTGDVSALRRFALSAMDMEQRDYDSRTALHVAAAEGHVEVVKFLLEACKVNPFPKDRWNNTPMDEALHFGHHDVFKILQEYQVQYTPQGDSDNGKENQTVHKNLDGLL

[3] = Inhibition of glutaminase (unknown origin) preincubated for 60 mins; parameters: species or system Homo sapiens
[4] = Aqueous solubility of compound in PBS 7.4 at 5 mg/ml incubated for 24 hrs by LC-MS-based shake-flask method; assay type: physicochemical; conditions: buffer, pH 7.4, 24 h
[5] = Metabolic stability in mouse liver microsomes assessed as compound remaining after 60 mins incubation in presence of NADPH by LC-MS/MS analysis; assay type: ADME, Microsome; conditions: 1 h

Structure (SMILES) | IC50 [2] | other results
O=C(Cc1cccc(OC(F)(F)F)c1)Nc1ccc(CCCCc2nnc(NC(=O)Cc3ccccn3)s2)nn1 | – | IC50 [1]: < 50 nM
O=C(Cc1ccccc1)Nc1nnc(CSCc2nnc(NC(=O)Cc3ccccc3)s2)s1 | > 100000 nM | IC50 [3]: > 20000 nM
O=C(Cc1ccccc1)Nc1nnc([C@H]2CCC[C@H](c3nnc(NC(=O)Cc4ccccc4)s3)C2)s1 | – | IC50 [3]: < 100 nM
O=C(Cc1ccccc1)Nc1ccc(CCSc2nnc(NC(=O)Cc3ccccc3)s2)nn1 | 30 nM | solubility [4]: Insoluble
Nc1nnc(CCSc2nnc(NC(=O)Cc3ccccc3)s2)s1 | 1600 nM | –
Nc1nnc(SCCc2nnc(NC(=O)Cc3ccccc3)s2)s1 | 3000 nM | –
Nc1nnc(CCSc2ccc(NC(=O)Cc3ccccc3)nn2)s1 | 14000 nM | –
Nc1nnc(SCCc2ccc(NC(=O)Cc3ccccc3)nn2)s1 | 6800 nM | –
O=C(Cc1ccccn1)Nc1nnc(CCSc2nnc(NC(=O)Cc3ccccc3)s2)s1 | 110 nM | –
O=C(Cc1cccc(OC(F)(F)F)c1)Nc1nnc(CCSc2nnc(NC(=O)Cc3ccccc3)s2)s1 | 140 nM | –
O=C(Cc1ccccc1)Nc1nnc(CCSc2nnc(NC(=O)Cc3ccccn3)s2)s1 | 100 nM | –
CN(C)c1ccc(CC(=O)Nc2nnc(CCSc3nnc(NC(=O)Cc4ccccc4)s3)s2)cc1 | 200 nM | –
O=C(Cc1ccccc1)Nc1nnc(CCSc2nnc(NC(=O)Cc3ccccc3)s2)s1 | 50 nM | Stabilty [5]: 87%
O=C(Cc1ccccc1)Nc1nnc([C@H]2CCC[C@H](c3nnc(NC(=O)Cc4ccccc4)s3)C2)s1 (racemic) | 280 nM | –

Reference: ChEMBL document CHEMBL4665882, “Allosteric kidney-type glutaminase (GLS) inhibitors with a mercaptoethyl linker” (Bioorg Med Chem, 2020)
